Measurements from ChEMBL document CHEMBL1201862, “PubChem BioAssay data set” (2004).
Counter-ions that a name gives are not always drawn. Active and inactive are the calls of the source.

Experiments:
Mu-type opioid receptor = Mu-type opioid receptor (Homo sapiens, UniProt P35372); assay type: functional, cell-based;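 further: U2OS cells with beta-arrestin recruitment to OPRM1 by beta-gal complementation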
[1] = biological target: 5-hydroxytryptamine receptor 2A (Mus musculus, UniProt P35363); assay type: functional, cell-based;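 further: CHO-K1 cells with tagged receptor and beta-arrestin; agonist potency measured as compound-induced activation of the receptor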
[2] = HEK293T cell cytotoxicity, dose response, cytotoxicity control for HIV Vif inhibitor project, cherry-picks (AID 652208); assay type: functional, cell-based
Cytochrome P450 1A2 = biological target: T1, Cytochrome P450 1A2 (Homo sapiens, UniProt P05177);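 further: PubChem cytochrome P450 panel assay, CYP1A2 panel member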
T1 sequence (P05177 whole entry): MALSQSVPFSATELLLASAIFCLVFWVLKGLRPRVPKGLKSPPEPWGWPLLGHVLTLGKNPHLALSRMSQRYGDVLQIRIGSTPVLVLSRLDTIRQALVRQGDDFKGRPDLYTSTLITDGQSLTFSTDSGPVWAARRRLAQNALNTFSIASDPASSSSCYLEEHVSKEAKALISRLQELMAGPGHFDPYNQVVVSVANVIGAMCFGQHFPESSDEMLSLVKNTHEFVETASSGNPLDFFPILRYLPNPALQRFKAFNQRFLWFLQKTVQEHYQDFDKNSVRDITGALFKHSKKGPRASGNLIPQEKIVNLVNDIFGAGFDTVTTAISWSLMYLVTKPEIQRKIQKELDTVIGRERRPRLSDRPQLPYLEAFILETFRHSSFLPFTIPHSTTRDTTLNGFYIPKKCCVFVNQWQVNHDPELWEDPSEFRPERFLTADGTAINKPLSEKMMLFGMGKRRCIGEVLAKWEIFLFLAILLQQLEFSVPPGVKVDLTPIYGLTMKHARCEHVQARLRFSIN

Cytochrome P450 3A4 = Cytochrome P450 3A4 (Homo sapiens, UniProt P08684);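 further: CYP3A4 tested as one member of a cytochrome P450 panel screen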
[3] = Luminescence Cell-Based Dose Confirmation HTS to Identify Activators of 5'UTR Stem-Loop Driven Alpha-Synuclein mRNA Translation in H4 Neuroglioblastoma Cells. [Related pubchem assays: 1829 (Project Summary), 1814 (Primary HTS)]; assay type: functional
[4] = Luminescence Cell-Based Dose Response HTS to Identify Activators of Luciferase Translation or Activity in H4 […] Cells. [Related pubchem assays: 1829 (Project Summary), 1814 (Primary HTS)]; assay type: functional
H4 = experiment: Luminescence Cell-Based Dose Response HTS to Identify Activators of 5'UTR Stem-Loop Driven Prion Protein mRNA Translation in H4 Neuroglioblastoma Cells. [Related pubchem assays: 1829 (Project Summary), 1814 (Primary HTS)]; assay type: functional; settings: Homo sapiens
[5] = ADAM10 inhibitors, peptide cleavage, dose response, biochemical, QFRET (AID 743254);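 further: ADAM10 enzyme with the DM2 quenched FRET peptide as substrate; EDANS fluorescence gain as the protease cuts the substrate; inhibitor potency against ADAM10 proteolytic activity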
cells [6] = assay type: functional, cell-based
[7] = biological target: T2, Nuclear receptor subfamily 0 group B member 1 (Homo sapiens, UniProt P51843); assay type: functional, cell-based;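 further: HEK293T cells transfected with SF-1 and DAX-1 plus StAR promoter luciferase reporter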
T2 sequence (P51843 whole entry): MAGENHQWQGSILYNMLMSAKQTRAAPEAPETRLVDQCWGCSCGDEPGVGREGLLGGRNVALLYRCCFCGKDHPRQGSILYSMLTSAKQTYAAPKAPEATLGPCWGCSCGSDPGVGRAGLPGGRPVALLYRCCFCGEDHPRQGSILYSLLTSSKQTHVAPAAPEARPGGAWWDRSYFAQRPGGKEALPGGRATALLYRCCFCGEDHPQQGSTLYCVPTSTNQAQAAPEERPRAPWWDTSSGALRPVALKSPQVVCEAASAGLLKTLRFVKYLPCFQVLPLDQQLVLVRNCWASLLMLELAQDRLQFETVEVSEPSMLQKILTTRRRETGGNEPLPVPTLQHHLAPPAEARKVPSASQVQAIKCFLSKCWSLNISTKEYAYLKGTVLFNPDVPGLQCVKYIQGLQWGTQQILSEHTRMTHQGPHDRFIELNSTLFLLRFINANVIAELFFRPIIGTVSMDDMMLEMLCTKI

[8] = biological target: SWI/SNF-related matrix-associated actin-dependent regulator of chromatin subfamily A member 2 (Homo sapiens, UniProt P51531); experiment: Luminescence-based cell-based high throughput dose response assay to identify activators of the function of SWI/SNF related, matrix associated, actin dependent regulator of chromatin, subfamily a, member 2 (SMARCA2, BRM).; assay type: functional
[9] = Counterscreen for activators of the function of SWI/SNF related, matrix associated, actin dependent regulator of chromatin, subfamily a, member 2 (SMARCA2, BRM): Luminescence-based cell-based high throughput dose response assay to identify non-selective compounds using the VP16 reporter assay.; assay type: functional
Large T antigen = Large T antigen (Simian virus 40, UniProt P03070); assay type: functional, Betapolyomavirus macacae;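 further: Confirmatory-stage PubChem screen for compounds that inhibit SV40 T antigen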
[10] = inhibitors of intracellular T. cruzi replication, confirmation, NIH3T3 host cells, beta-gal luminescence (AID 2044); assay type: functional, cell-based;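 further: intracellular parasites grown in NIH/3T3 mouse fibroblasts as host cells; luminescent beta-galactosidase reporter signal from transgenic T. cruzi replicating inside host cells; inhibitors lower the luminescence signal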
[11] = cytotoxicity toward NIH3T3 fibroblasts, dose response, counter-screen, cell-based, ATP luminescence, mouse fibroblasts (AID 2010); assay type: functional;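 further: cells exposed to compound for about 90 hours before reading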
[12] = biological target: Glucose-6-phosphate 1-dehydrogenase (Homo sapiens, UniProt P11413); experiment: human G6PD enzyme inhibitors, dose response, selectivity assay for P. falciparum G6PD inhibitor project, biochemical, fluorescence (AID 504792); assay type: functional
Vero = experiment: cells; assay type: functional; settings: Chlorocebus sabaeus
[13] = biological target: T3, Mitochondrial peptide methionine sulfoxide reductase (Bos taurus, UniProt P54149); experiment: Absorbance-based biochemical high throughput dose response assay for activators of Methionine sulfoxide reductase A (MsrA).; assay type: functional
T3 sequence (P54149 whole entry): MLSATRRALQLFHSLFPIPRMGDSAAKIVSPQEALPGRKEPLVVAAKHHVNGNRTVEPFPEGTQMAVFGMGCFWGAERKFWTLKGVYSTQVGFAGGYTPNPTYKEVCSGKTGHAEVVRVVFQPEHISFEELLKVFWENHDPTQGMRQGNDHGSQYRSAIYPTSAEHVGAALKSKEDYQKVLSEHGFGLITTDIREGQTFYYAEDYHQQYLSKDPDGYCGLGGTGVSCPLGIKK

[14] = P. falciparum late gametocyte killing, dose response, luminescence (AID 1117278); assay type: functional, cell-based;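 further: gametocytes exposed to compound for 24 hours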
[15] = Jurkat T cell cytotoxicity, dose response, cytotoxicity control for P. falciparum gametocyte viability project, luminescence (AID 1117277); assay type: functional, cell-based;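 further: potency reflects loss of cellular ATP meaning fewer viable cells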
INS1 = experiment: beta cell apoptosis inhibitors, cytokine rescue, dose response, luminescence, retest (AID 449756); assay type: functional, cell-based; settings: Rattus norvegicus;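 further: cell death triggered by IL-1 beta plus TNF-alpha plus IFN-gamma mixture; protective hits raise ATP signal compared with cytokine alone wells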
[16] = biological target: T4, COUP transcription factor 2 (Homo sapiens, UniProt P24468); experiment: Luminescence-based cell-based high throughput dose response assay to identify inhibitors of COUP-TFII (NR2F2).; assay type: functional;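 further: HEK293 cells transiently cotransfected with COUP-TFII expression vector and reporter; luciferase reporter luminescence driven by COUP-TFII from the pX2-168 reporter plasmid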
T4 sequence (P24468 whole entry): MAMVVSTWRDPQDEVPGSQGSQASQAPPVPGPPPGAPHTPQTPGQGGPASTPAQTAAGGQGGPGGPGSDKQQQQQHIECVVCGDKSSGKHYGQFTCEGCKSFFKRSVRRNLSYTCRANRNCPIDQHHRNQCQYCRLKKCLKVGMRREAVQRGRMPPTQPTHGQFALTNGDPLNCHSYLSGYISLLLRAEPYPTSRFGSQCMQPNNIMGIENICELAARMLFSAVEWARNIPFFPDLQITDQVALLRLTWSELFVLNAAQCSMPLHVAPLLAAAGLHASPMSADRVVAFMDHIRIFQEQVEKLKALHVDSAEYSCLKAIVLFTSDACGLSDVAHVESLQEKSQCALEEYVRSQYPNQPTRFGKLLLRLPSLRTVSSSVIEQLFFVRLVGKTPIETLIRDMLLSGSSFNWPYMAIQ

[17] = biological target: T5, Heat shock factor protein 1 (Mus musculus, UniProt P38532); experiment: inhibition of MG132-induced HSE-luciferase signal, confirmation, cell-based, NIH3T3, luminescence, dose retest (AID 2382); assay type: functional;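 further: NIH3T3 fibroblasts with HSF1-driven luciferase reporter stressed by proteasome inhibitor MG132; luminescence from HSF1-driven luciferase expression after 8 hours of MG132 stress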
T5 sequence (P38532 whole entry): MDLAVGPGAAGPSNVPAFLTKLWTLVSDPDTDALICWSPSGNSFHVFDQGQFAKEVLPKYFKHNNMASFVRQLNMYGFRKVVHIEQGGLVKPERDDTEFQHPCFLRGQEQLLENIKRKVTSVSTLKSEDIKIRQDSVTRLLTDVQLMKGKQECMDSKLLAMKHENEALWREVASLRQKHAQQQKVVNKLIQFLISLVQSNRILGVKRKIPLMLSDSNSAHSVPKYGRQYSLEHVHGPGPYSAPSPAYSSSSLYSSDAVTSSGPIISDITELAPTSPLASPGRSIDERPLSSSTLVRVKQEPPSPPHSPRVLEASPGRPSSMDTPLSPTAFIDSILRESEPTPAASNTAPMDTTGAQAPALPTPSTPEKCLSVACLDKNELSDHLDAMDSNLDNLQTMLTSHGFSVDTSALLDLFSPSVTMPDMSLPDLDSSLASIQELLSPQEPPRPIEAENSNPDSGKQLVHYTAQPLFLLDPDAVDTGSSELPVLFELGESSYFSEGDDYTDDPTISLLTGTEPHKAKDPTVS

Major prion protein = Major prion protein (Homo sapiens, UniProt P04156); assay type: functional, cell-based
cells [18] = experiment: cells
[19] = biological target: Peroxisome proliferator-activated receptor gamma/Nuclear receptor coactivator 1 (Homo sapiens, UniProt P37231); experiment: (§1) TR-FRET dose response biochemical High Throughput Screening assay for agonists of the steroid receptor coactivator 1 (SRC-1) recruitment by the peroxisome proliferator-activated receptor gamma (PPAR gamma): non-selective agonists. [Related pubchem assays (depositor defined):AID1300, AID1808, AID504735, AID631]; assay type: protein assay
[20] = biological target: Peroxisome proliferator-activated receptor gamma/Nuclear receptor coactivator 3 (Homo sapiens, UniProt P37231); experiment: as §1, with “3 (SRC-3)” for “1 (SRC-1)”, “assays: 1301 (Confirmation screen.), 1048 (Primary screen.)]” for “assays (depositor defined):AID1300, AID1808, AID504735, AID631]”; assay type: functional
[21] = biological target: Peroxisome proliferator-activated receptor gamma/Nuclear receptor coactivator 2 (Homo sapiens, UniProt P37231); experiment: TR-FRET dose response biochemical High Throughput Screening assay for agonists of the steroid receptor coactivator 2 (SRC-2) recruitment by the peroxisome proliferator-activated receptor gamma (PPAR gamma): non-selective agonists. [Related pubchem assays: 1297, 1032 ]; assay type: functional
[22] = lymphoblastoid cell cytotoxicity, dose response, cytotoxicity control, plate reader, dry powder, set 2 (AID 624367); assay type: functional
Fatty acid synthase = Fatty acid synthase (Homo sapiens, UniProt P49327); experiment: FAS thioesterase domain inhibitors, SAR follow-up, biochemical, endpoint fluorescence intensity, powder samples (AID 652164); assay type: functional

Question: Which EC50 (Mu-type opioid receptor) does the source give for `CCCN(CCc1ccccc1)C1CCc2c(O)cccc2C1` (stereo unspecified) here?
Answer: 92.6 µM (inactive)

Question: And the EC50 [1]?
Answer: 0.0038 µM (active)

Question: With `Cc1nn(Cc2c(Cl)cccc2Cl)c(C)c1NC(=O)c1cnn2c(C(F)F)cc(-c3ccccc3)nc12` as the compound, how does the AC50 [2] read?
Answer: 26 µM (active)

Question: What about the AC50 (Cytochrome P450 1A2) of the same compound?
Answer: 31.6 µM (inconclusive)

Question: And the AC50 (Cytochrome P450 3A4)?
Answer: inconclusive

Question: What does the source list for `CCc1ccc(-c2cn(C3CCCCC3)c(S)n2)cc1`?
Answer: EC50 [3]: 67.1 µM (active); EC50 [4]: > 120 µM (not active); EC50 (H4): > 60 µM (not active); IC50 [5]: > 69.5 µM (inactive)

Question: What does the source list for `COc1ccc2oc(C(=O)NCC3CCCO3)c(C)c2c1` (stereo unspecified)?
Answer: IC50 (cells [6]): > 67.6 µM (inactive); IC50 [7]: > 67.6 µM (inactive)

Question: Which EC50 [8] does the source give for `O=C(COC(=O)c1nc(Cl)c(Cl)c(Cl)c1Cl)c1ccc[nH]1` here?
Answer: > 91.1 µM (inactive)

Question: What about the EC50 [9] of the same compound?
Answer: > 91.1 µM (inactive)

Question: Which IC50 (Large T antigen) does the source give for `O=c1[nH]sc2cc(F)ccc12` here?
Answer: 33.3 µM (active)

Question: What about the EC50 [10] of the same compound?
Answer: 0.202 µM (active)

Question: What about the EC50 [11] of the same compound?
Answer: 16.1 µM (active)

Question: And the IC50 [12]?
Answer: > 80 µM (inactive)

Question: What about the CC50 (Vero) of the same compound?
Answer: > 25 µM (active)

Question: What about the EC50 [13] of the same compound?
Answer: > 104 µM (inactive)

Question: What about the EC50 [8] of the same compound?
Answer: > 91.1 µM (inactive)

Question: What about the EC50 [9] of the same compound?
Answer: > 91.1 µM (inactive)

Question: And the IC50 [14]?
Answer: > 36.3 µM (inactive)

Question: What about the IC50 [15] of the same compound?
Answer: 22.2 µM (inactive)

Question: Which results are given for `CC(C)OCCCNc1[nH]cnc2c3cc(F)ccc3nc1-2`?
Answer: AC50 (INS1): 1.63 µM (active); AC50 [2]: > 52 µM (inactive); IC50 [16]: 6.62 µM (active)

Question: What does the source list for `COc1nc(-c2ccccc2)c2cc(Br)ccc2n1`?
Answer: EC50 [17]: > 195 µM (not active); IC50 (Major prion protein): 5.53 µM (active); IC50 (cells [18]): > 138 µM (inactive)

Question: What does the source list for `C#CCn1/c(=N/C(=O)c2ccc(Br)s2)sc2cccc(OC)c21`?
Answer: EC50 [19]: 10.3 µM (inactive); EC50 [20]: 18.1 µM (not active); EC50 [21]: 10.6 µM (not active); IC50 (Major prion protein): 2.6 µM (active); IC50 (cells [18]): 48.6 µM (inactive)

Question: For `Cc1noc(C)c1-c1ccc(C(=O)Nc2ccccc2)c2occc12`, which IC50 (cells [6]) is on record?
Answer: > 67.5 µM (inactive)

Question: What about the IC50 [7] of the same compound?
Answer: > 2.5 µM (active)

Question: Which AbsAC35 [22] does the source give for `CN1C(=O)c2cc(NC(=O)c3ccc(C(F)(F)F)cc3)ccc2OC[C@H]2O[C@@H](CC(=O)NC3Cc4ccccc4C3)CC[C@H]21` here?
Answer: 40.05 µM

Question: For `CN(C)S(=O)(=O)c1ccc(-c2csc(NC(=O)C3CCCC3)n2)cc1`, which IC50 (Fatty acid synthase) is on record?
Answer: 1.55 µM (active)

Question: For `CN(C)S(=O)(=O)c1ccc(-c2csc(NC(=O)C3CC3)n2)cc1`, which IC50 (Fatty acid synthase) is on record?
Answer: 1.23 µM (active)

Question: With `CNC[C@H](O)c1cccc(O)c1` [PHENYLEPHRINE HYDROCHLORIDE] as the compound, how does the EC50 (Mu-type opioid receptor) read?
Answer: 92.4 µM (inactive)

Question: What about the EC50 [1] of the same compound?
Answer: 19.3 µM (inactive)
